Laboratory results published in patent US20250339409A1, “USES OF PAN BET INHIBITORS” (VYNE THERAPEUTICS INC., priority 2021, published 2025).
Values after ≈ are worked out from the molar mass of the structure shown. Where two headings read alike, the source gives them in different places.

What was measured:
[1] = system: IL4, IL13, IL31, CCL17, CCL26, CCL2 gene expression in Th2 stimulated human skin; assay: Th2 stimulated human skin explants, RT-qPCR of biomarkers; assay type: cell-based; details: for inhibition at 0.01 µM / inhibition at 0.04 µM / inhibition at 0.16 µM / inhibition at 0.63 µM / inhibition at 2.5 µM / inhibition at 10 µM: Homo sapiens, calculated to Th2 stimulated control; for inhibition at 2.5 µM: 2.50 μM
From the text: Human skin biopsy tissue was stimulated to induce a Th17 immuno-phenotype using a method derived from Feghali-Bostwick et al. Induction of a Th17 phenotype in human skin—a mimic of dermal inflammatory diseases, Methods and Protocols, 2, 45 (2019). The pharmacodynamic assay described therein involves a similar paradigm to elicit a Th2 response and is used to evaluate the therapeutic potential of the active compounds (e.g., BETi1; and
Freshly excised healthy human skin tissue from abdominoplasties is defatted, cleaned and sectioned into 7 mm biopsies. The biopsies are placed in Transwell® inserts with the epidermis apical and exposed to air and the dermis submerged in media in the basal chamber. The biopsies are pre-treated overnight at 37° C., 5% CO2 with different compounds and controls added to the media in the basal chamber.
The next day, contents of the basal chamber is replaced with fresh media containing the test compound (listed below) and a stimulation cocktail for either Th2 inflammation (proprietary of service provider cocktail) or Th17 inflammation (mix of antibodies against CD3, CD28, IL-4, IFNγ and recombinant IL-1β, IL-6, IL-21, TGF-β). The biopsies are incubated at 37° C., 5% CO2 for a further 24 hrs.
A list of all the treatments is provided below: • 1. Untreated control (for both stimulations) • 2. Th2 stimulated control • 3. Th17 stimulated control • 4. Th2+BETia at 0.01, 0.04, 0.16, 0.63, 2.50, and 10 μM • 5. Th2+BETi1 at 0.01, 0.04, 0.16, 0.63, 2.50, and 10 μM • 6. Th2+Ruxolitinib at 0.01, 0.04, 0.16, 0.63, 2.50, and 10 μM • 7. Th2+betamethasone valerate 210 μM (equivalent to 0.01%) • 8. Th17+BETia at 10 μM • 9. Th17+BETi1 at 10 μM • 10. Th17+Ruxolitinib at 10 μM • 11. Th17+betamethasone valerate 210 μM (equivalent to 0.01%)
After harvesting, the biopsies are cut in half, and one half is homogenized and used for RNA extraction by standard methods and inflammatory pathways is assessed by RT-qPCR. The ability of BETi1 or BETia to inhibit the activity of up to six biomarkers per stimulation is reported as percent activity calculated to stimulated control and fold change in gene expression calculated to untreated control with respect to Th2 (IL4, IL13, IL31, CCL17, CCL26, CCL2) and Th17 (CXCL10, IL17α, IL22, IL36γ, CCL20, SerpinB4). Statistical analysis is performed on data sets from all 3 donors combined and compares the percent inhibition of each biomarker by each treatment calculated to its respective vehicle.
qPCR values were calculated using the relative quantification approach outlined by Livak, et al (2001) (Section 9, Reference 2). The Ct values (threshold cycle) defined as the fractional cycle number at which the amount of amplified target reaches a fixed threshold, were normalised to the Ct value of an internal biomarker or ‘housekeeping gene’ (GAPDH). The higher limit of detection was set at a Ct value of 40, and any target having not reached Ct by 40 cycles was set to this value. The delta Ct values (dt(Ct)) refers to the Ct of the gene of interest minus the Ct of the internal biomarker. The ddt(Ct) is the dt(Ct) value of the gene minus the average dt(Ct) value of the untreated samples. The ddt(Ct) is converted to power by the equation; =power(2,dt(Ct)). Fold change was calculated as ratio of the power of the gene of interest divided by the average power of the untreated samples. This normalizes the untreated samplers to a value of 1. For the comparison of multiple skin donors, the stimulated samples were normalized to 100% maximum activity (such to normalize variability between different skin donors). Percent activity was calculated as the percent increase or decrease in stimulation compared to the stimulated samples set at 100% maximum activity. Percent change was calculated as: Inhibition=(100−(avg % activity/stimulated)*100). Statistical analysis was performed using One-way ANOVA with Dunnett's Multiple Comparisons (non parametric). […]

[2] = Solubility of BETi1 in water (HPLC) and in solvents (visual observation); assay type: physicochemical
Procedure: The resulting sample, still containing solid BETi1, was filtered and analyzed by HPLC for assay of BETi1 in solution. Solubility of BETi in water was determined to be about 0.005 mg/gram or 0.5 mg/100 mL water (1 ml=1 g) using HPLC (Table 41A).
To characterize the solubility of BETi in other solvents, about 5 mg of BETi1 was weighed into a 2 ml glass vial. 20 μL aliquots of each of the solvent listed in Table 41B was added to dissolve the drug substance at 25° C. Vortex and sonication were applied to assist dissolution. Approximate solubility was determined by visual observation and reported in […]

[3] = Th2 stimulated human skin explants, 10 μM, compared to untreated skin

Cn1cc(-c2cccc(O)c2Oc2ccccc2)c2cc[nH]c2c1=O [BETi1]
inhibition at 0.01 µM ([1]; read-out: % Inhibition CCL17): 22.4% | inhibition at 0.01 µM ([1]; read-out: % Inhibition CCL26): 31.3% | inhibition at 0.01 µM ([1]; read-out: % Inhibition IL31): < 0% | inhibition at 0.01 µM ([1]; read-out: % inhibition CCL2): < 0% | inhibition at 0.01 µM ([1]; read-out: % inhibition IL4): 20.4% | inhibition at 0.01 µM ([1]; read-out: % inhibition IL13): 22.4% | inhibition at 0.04 µM ([1]; read-out: % Inhibition CCL17): < 0% | inhibition at 0.04 µM ([1]; read-out: % Inhibition CCL26): 10.9% | inhibition at 0.04 µM ([1]; read-out: % Inhibition IL31): < 0% | inhibition at 0.04 µM ([1]; read-out: % inhibition CCL2): < 0% | inhibition at 0.04 µM ([1]; read-out: % inhibition IL4): 51.8% | inhibition at 0.04 µM ([1]; read-out: % inhibition IL13): 3% | inhibition at 0.16 µM ([1]; read-out: % Inhibition CCL26): 15.2% | inhibition at 0.16 µM ([1]; read-out: % Inhibition IL31): ~74% | inhibition at 0.16 µM ([1]; read-out: % inhibition CCL2): 40% | inhibition at 0.16 µM ([1]; read-out: % inhibition IL4): 83.4% | inhibition at 0.16 µM ([1]; read-out: % inhibition IL13): 76.3% | inhibition at 0.63 µM ([1]; read-out: % Inhibition CCL17): 48% | inhibition at 0.63 µM ([1]; read-out: % Inhibition CCL26): < 0% | inhibition at 0.63 µM ([1]; read-out: % inhibition CCL2): 34.9% | inhibition at 0.63 µM ([1]; read-out: % inhibition IL4): ~80% | inhibition at 0.63 µM ([1]; read-out: % inhibition IL13): ~84% | inhibition at 2.5 µM ([1]; read-out: % Inhibition CCL17): 62.3% | inhibition at 2.5 µM ([1]; read-out: % Inhibition CCL26): < 0% | inhibition at 2.5 µM ([1]; read-out: % inhibition CCL2): 76.5% | inhibition at 2.5 µM ([1]; read-out: % inhibition IL4): 82% | inhibition at 2.5 µM ([1]; read-out: % inhibition IL13): 90.2% | inhibition at 10 µM ([1]; 10 μM, read-out: % Inhibition CCL17): ~62% | inhibition at 10 µM ([1]; 10 μM, read-out: % Inhibition CCL26): < 0% | inhibition at 10 µM ([1]; 10 μM, read-out: % Inhibition IL31): 95.4% | inhibition at 10 µM ([1]; 10 μM, read-out: % inhibition IL4): 74.9% | inhibition at 10 µM ([1]; 10 μM, read-out: % inhibition IL13): 93.3% | highest percent inhibition of IL4, IL13, IL31, and CCL2 gene expression ([1]; Th2-mediated stimulation, compared to stimulated and untreated): 76-85% | inhibition of interleukin IL-4 expression [1, 3]: 75% | inhibition of interleukin IL-13 expression [1, 3]: 93% | inhibition of interleukin IL-31 expression [1, 3]: 95% | reduction in CXCL10, IL-17a, IL-36γ, IL-4, IL-13 or IL-31 levels ([1]; human skin induced to exhibit Th2 or Th17 phenotype): > 75% | solubility ([2]; isopropanol): slightly soluble | solubility ([2]; organic solvent or mixture, thermodynamic from solid, 1,4-Dioxane, 25° C., visual observation, read-out: Approximate solubility): 104 mg/mL (≈ 313 mM) | solubility ([2]; organic solvent or mixture, thermodynamic from solid, Acetone, 25° C., visual observation, read-out: Approximate solubility): 15 mg/mL (≈ 45.1 mM) | solubility ([2]; organic solvent or mixture, thermodynamic from solid, Acetonitrile, 25° C., visual observation, read-out: Approximate solubility): < 5 mg/mL | solubility ([2]; organic solvent or mixture, thermodynamic from solid, Anisole, 25° C., visual observation, read-out: Approximate solubility): < 5 mg/mL | solubility ([2]; organic solvent or mixture, thermodynamic from solid, Dichloromethane, 25° C., visual observation, read-out: Approximate solubility): < 5 mg/mL | solubility ([2]; organic solvent or mixture, thermodynamic from solid, Ethanol, 25° C., visual observation, read-out: Approximate solubility): 12 mg/mL (≈ 36.1 mM) | solubility ([2]; organic solvent or mixture, thermodynamic from solid, Ethyl acetate, 25° C., visual observation, read-out: Approximate solubility): < 5 mg/mL | solubility ([2]; organic solvent or mixture, thermodynamic from solid, Heptane, 25° C., visual observation, read-out: Approximate solubility): < 5 mg/mL | solubility ([2]; organic solvent or mixture, thermodynamic from solid, IPAc, 25° C., visual observation, read-out: Approximate solubility): < 5 mg/mL | solubility ([2]; organic solvent or mixture, thermodynamic from solid, Isopropanol, 25° C., visual observation, read-out: Approximate solubility): 6 mg/mL (≈ 18.1 mM) | solubility ([2]; organic solvent or mixture, thermodynamic from solid, Methanol, 25° C., visual observation, read-out: Approximate solubility): 21 mg/mL (≈ 63.2 mM) | solubility ([2]; organic solvent or mixture, thermodynamic from solid, Methyl ethyl ketone, 25° C., visual observation, read-out: Approximate solubility): 12 mg/mL (≈ 36.1 mM) | solubility ([2]; organic solvent or mixture, thermodynamic from solid, Tetrahydrofuran, 25° C., visual observation, read-out: Approximate solubility): 104 mg/mL (≈ 313 mM) | solubility ([2]; organic solvent or mixture, thermodynamic from solid, t-Butyl methyl ether, 25° C., visual observation, read-out: Approximate solubility): < 5 mg/mL | solubility ([2]; polyethylene glycol 400, methanol, ethanol, acetone and methyl ethyl ketone): sparingly soluble | solubility ([2]; polyethylene glycol 400, organic solvent or mixture, read-out: solubility in polyethylene glycol 400): ~20 mg/mL (≈ 60.2 mM) | solubility ([2]; tetrahydrofurane and 1,4-dioxane): freely soluble | solubility at 5 h ([2]; thermodynamic from solid, Water, 25° C., HPLC, read-out: Approximate solubility): 0.005 mg/mL (≈ 0.015 mM) | solubility ([2]; water, ethyl acetate, acetonitrile, IPAc, t-Butyl methyl ether, heptane, dichloromethane or anisole): insoluble | solubility at 5 h ([2]; water, as stated in the dog study, read-out: water solubility limit): 0.05 mg/mL (≈ 0.15 mM)
